The test system of the test is THP-1 cells. Briefly: TNF-α secretion in THP-1 cells (LPS-triggered). The class given is cell-based. Particulars: Homo sapiens, 0.05 μg/ml LPS, 17 h, read-out: IC50 with respect to the secretion of TNF-α in THP-1 cells. On the procedure: With the aid of this test, it is possible to test substances for their ability to inhibit secretion of TNF-α (tumour necrosis factor alpha) in THP-1 cells (human monocytic acute leukaemia cell line). […] In this test, TNF-α secretion is triggered by incubation with bacterial lipopolysaccharide (LPS).
The cells were incubated at room temperature for 15 min. 2-2.5 μl of 0.1 μg/ml LPS (Sigma, Escherichia coli 055:B5, Cat. No. L5418) dissolved in cell culture medium (final concentration 0.05 μg/ml) were then dispensed into each well. As neutral control, cells were treated with 0.05 μg/ml LPS and 1% DMSO and, as inhibitor control, with 1% DMSO only.
The amount of TNF-α was determined using the TNF-alpha HTRF Detection Kit (Cisbio, Cat. No. 62TNFPEB/C). To this end, 2 μl of the detection solution in each case, consisting of anti-TNF-α-XL665 conjugate and anti-TNF-α-cryptate conjugate dissolved in the reconstitution buffer in accordance with the manufacturer's instructions, were added for the HTRF (Homogeneous Time-Resolved Fluorescence) test. After the addition, the mixture was incubated either at room temperature for 3 h or at 4° C. overnight.
The activity of the substances is expressed as the ratio between neutral and inhibitor control in percent. The IC50 values were calculated using a 4-parameter fit.

Usually IC50 stands for the concentration needed to halve the response being measured.

Take `COCCn1cc2cc(NC(=O)c3cccc(C(F)(F)F)n3)c(C(C)(C)O)cc2n1` [Example 1, N-[6-(2-Hydroxypropan-2-yl)-2-(2-methoxyethyl)-2H-indazol-5-yl]-6-(trifluoromethyl)pyridine-2-carboxamide]: the IC50 was found to be 1 nM.

Take `COCCn1cc2cc(NC(=O)c3cccc(C(F)(F)F)n3)c(CO)cc2n1` [Example 2, N-[6-(Hydroxymethyl)-2-(2-methoxyethyl)-2H-indazol-5-yl]-6-(trifluoromethyl)pyridine-2-carboxamide]: the IC50 was 15.1 nM.

For the compound `COCCCn1cc2cc(NC(=O)c3cccc(C(F)(F)F)n3)c(CO)cc2n1` [Example 4, N-[6-(Hydroxymethyl)-2-(3-methoxypropyl)-2H-indazol-5-yl]-6-(trifluoromethyl)pyridine-2-carboxamide], the IC50 stood at 5.6 nM.

`CC(C)(O)c1cc2nn(CCO)cc2cc1NC(=O)c1cccc(C(F)(F)F)n1` [Example 5, N-[2-(2-Hydroxyethyl)-6-(2-hydroxypropan-2-yl)-2H-indazol-5-yl]-6-(trifluoromethyl)pyridine-2-carboxamide]: the concentration for half-maximal inhibition (IC50) was 5.4 nM.

For `CC(C)(O)c1cc2nn(CCCO)cc2cc1NC(=O)c1cccc(C(F)(F)F)n1` [Example 6, N-[6-(2-Hydroxypropan-2-yl)-2-(3-hydroxypropyl)-2H-indazol-5-yl]-6-(trifluoromethyl)pyridine-2-carboxamide], the IC50 came out at 0.9 nM.

In the case of `O=C(Nc1cc2cn(CCO)nc2cc1CO)c1cccc(C(F)(F)F)n1` [Example 7, N-[2-(2-Hydroxyethyl)-6-(hydroxymethyl)-2H-indazol-5-yl]-6-(trifluoromethyl)pyridine-2-carboxamide], the IC50 was 16.4 nM.

In the case of `CC(C)(O)c1cc2nn(CC3COC3)cc2cc1NC(=O)c1cccc(C(F)(F)F)n1` [Example 8, N-[6-(2-Hydroxypropan-2-yl)-2-(oxetan-3-ylmethyl)-2H-indazol-5-yl]-6-(trifluoromethyl)pyridine-2-carboxamide], the IC50 was found to be 1 nM.

Consider `O=C(Nc1cc2cn(CC3COC3)nc2cc1CO)c1cccc(C(F)(F)F)n1` [Example 9, N-[6-(Hydroxymethyl)-2-(oxetan-3-ylmethyl)-2H-indazol-5-yl]-6-(trifluoromethyl)pyridine-2-carboxamide], for which the IC50 was determined as 6.5 nM.

For the compound `CC(C)(O)c1cc2nn(CCCS(C)(=O)=O)cc2cc1NC(=O)c1cccc(C(F)(F)F)n1` [Example 10, N-{6-(2-Hydroxypropan-2-yl)-2-[3-(methylsulphonyl)propyl]-2H-indazol-5-yl}-6-(trifluoromethyl)pyridine-2-carboxamide], the IC50 is 1 nM.

As for `CC(C)(O)CCn1cc2cc(NC(=O)c3cccc(C(F)F)n3)c(C(C)(C)O)cc2n1` [Example 13, 6-(Difluoromethyl)-N-[2-(3-hydroxy-3-methylbutyl)-6-(2-hydroxypropan-2-yl)-2H-indazol-5-yl]pyridine-2-carboxamide], the IC50 was determined as 0.1 nM.

On to `CC(C)(O)c1cc2nn(CCS(C)(=O)=O)cc2cc1NC(=O)c1cccc(C(F)F)n1` [Example 14, 6-(Difluoromethyl)-N-{6-(2-hydroxypropan-2-yl)-2-[2-(methylsulphonyl)ethyl]-2H-indazol-5-yl}pyridine-2-carboxamide], for which the IC50 stood at 0.2 nM.

Take `CC(C)(O)c1cc2nn(CCCO)cc2cc1NC(=O)c1cccc(C(F)F)n1` [Example 15, 6-(Difluoromethyl)-N-[6-(2-hydroxypropan-2-yl)-2-(3-hydroxypropyl)-2H-indazol-5-yl]pyridine-2-carboxamide]: the IC50 came out at 0.2 nM.

In the case of `CC(C)(O)c1cc2nn(CCCC(F)(F)F)cc2cc1NC(=O)c1cccc(C(F)(F)F)n1` [Example 16, N-[6-(2-Hydroxypropan-2-yl)-2-(4,4,4-trifluorobutyl)-2H-indazol-5-yl]-6-(trifluoromethyl)pyridine-2-carboxamide], the IC50 stood at 0.2 nM.

For `CC(C)(O)c1cc2nn(CCCOC(F)(F)F)cc2cc1NC(=O)c1cccc(C(F)(F)F)n1` [Example 17, N-{6-(2-Hydroxypropan-2-yl)-2-[3-(trifluoromethoxy)propyl]-2H-indazol-5-yl}-6-(trifluoromethyl)pyridine-2-carboxamide], the IC50 was 0.5 nM.

Regarding `CC(C)(O)c1cc2nn(CCCOCC(F)(F)F)cc2cc1NC(=O)c1cccc(C(F)(F)F)n1` [Example 18, N-{6-(2-Hydroxypropan-2-yl)-2-[3-(2,2,2-trifluoroethoxy)propyl]-2H-indazol-5-yl}-6-(trifluoromethyl)pyridine-2-carboxamide], the IC50 is 0.3 nM.

In the case of `Cc1nc(C(=O)Nc2cc3cn(CCC(C)(C)O)nc3cc2C(C)(C)O)ccc1F` [Example 19, 5-Fluoro-N-[2-(3-hydroxy-3-methylbutyl)-6-(2-hydroxypropan-2-yl)-2H-indazol-5-yl]-6-methylpyridine-2-carboxamide], the IC50 stood at 0.1 nM.

For the compound `Cc1cccc(C(=O)Nc2cc3cn(CCC(C)(C)O)nc3cc2C(C)(C)O)n1` [Example 20, N-[2-(3-Hydroxy-3-methylbutyl)-6-(2-hydroxypropan-2-yl)-2H-indazol-5-yl]-6-methylpyridine-2-carboxamide], the IC50 stood at 0.2 nM.

With `CC(C)(O)c1cccc(C(=O)Nc2cc3cn(CCCC(F)(F)F)nc3cc2C(C)(C)O)n1` [Example 21, 6-(2-Hydroxypropan-2-yl)-N-[6-(2-hydroxypropan-2-yl)-2-(4,4,4-trifluorobutyl)-2H-indazol-5-yl]pyridine-2-carboxamide], the IC50 turned out to be 1.8 nM.

(Values after patent publication US11992481B2, “Use of 2-substituted indazoles for the treatment and prophylaxis of autoimmune diseases” (Bayer Pharma Aktiengesellschaft, priority 2016, dated 2024).)
